From patent US8383637B2, “2-amino-quinazoline derivatives useful as inhibitors of β-secretase (BACE)” (Jansssen Pharmaceutica N.V., priority 2004, dated 2013)
“And” between values parts separate entries of the source, which are not always exact repeats. Equal values may be shown once.

Target: T1, β-secretase(BACE) (Homo sapiens, UniProt P56817)
T1 construct: purchased Panvera
Assay: BACE FS1% Inhibition Assay
Type: biochemical
Conditions: FS1 substrate; for inhibition at 0.3 µM / inhibition at 1 µM / inhibition at 3 µM: read-out: % Inhibition (FS)
Method in brief: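 Human BACE (4 μg/mL working solution) preincubated 20 min at room temperature with compound, then FS1 substrate (300 μg/mL working solution) added and incubated 1 h at room temperature. Percent inhibition calculated at each compound concentration against blank and vehicle controls.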

T1 sequence (P56817 46-501): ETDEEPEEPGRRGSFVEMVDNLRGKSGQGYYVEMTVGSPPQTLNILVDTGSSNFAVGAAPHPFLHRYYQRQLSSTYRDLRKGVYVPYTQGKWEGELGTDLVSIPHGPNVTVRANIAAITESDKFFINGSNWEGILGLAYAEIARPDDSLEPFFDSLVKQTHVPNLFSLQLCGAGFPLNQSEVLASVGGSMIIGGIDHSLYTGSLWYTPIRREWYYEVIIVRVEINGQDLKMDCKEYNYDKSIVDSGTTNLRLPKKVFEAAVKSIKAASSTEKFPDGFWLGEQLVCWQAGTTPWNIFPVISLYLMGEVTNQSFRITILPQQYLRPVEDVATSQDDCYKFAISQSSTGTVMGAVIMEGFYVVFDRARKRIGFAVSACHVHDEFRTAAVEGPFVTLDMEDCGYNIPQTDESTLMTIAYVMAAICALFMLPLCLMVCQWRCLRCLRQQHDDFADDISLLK

% Inhibition (FS) 0.3 μM (0.3 μM test compound) | % Inhibition (FS) 1 μM (1 μM test compound) | % Inhibition (FS) 3 μM (3 μM test compound) | Structure (SMILES) | also measured
72% | 94% | 112% | NC1=Nc2ccc(-c3ccccc3Cl)cc2CN1CCNC(=O)C1CCCC1 [Compound 650] | 
<30% | 62% | 100% | Cc1ccccc1-c1ccc2c(c1)CN(CCNC(=O)C13CC4CC(CC(C4)C1)C3)C(N)=N2 [Compound 658] | 
<30% | <30% | 48% | CN(C(=O)c1ncoc1CN1Cc2cc(Oc3ccccc3)ccc2N=C1N)C1CCCCC1 [Compound 641] | 
<30% | <30% | <30% | NC1=Nc2ccc(Oc3ccccc3)cc2CN1Cc1ocnc1C(=O)NC1CCCCC1 [Compound 640] | 
56% | 87% | 104% | Cc1ccccc1-c1ccc2c(c1)CN(CCNC(=O)C1CCC1)C(N)=N2 [Compound 656] | 
101% | 114% | 122% | CCC[C@H](CNC(=O)CCC(C)C)N1Cc2cc(Oc3ccccc3)ccc2N=C1N [Compound 603] | 
37% | 63% | 96% | NC1=Nc2ccc(-c3ccccc3F)cc2CN1CCNC(=O)C1CCC1 [Compound 642] | 
<30% |  |  | NC1=Nc2ccc(-c3ccc(F)cc3)cc2CN1CCNC(=O)C1CCCCC1 [Compound 623] | % Inhibition (FS) 1 μM (1 μM test compound, 1 µM): <30%; % Inhibition (FS) 3 μM (3 μM test compound, 3 µM): 82%
94% | 116% | 123% | COc1ccccc1-c1ccc2c(c1)CN(Cc1cccc(C(=O)N(C)C3CCCCC3)c1)C(NC(C)=O)=N2 [Compound 607] | 

Second part, the molecule before the results:

Structure (SMILES) | % Inhibition (FS) 0.3 μM (0.3 μM test compound) | % Inhibition (FS) 1 μM (1 μM test compound) | % Inhibition (FS) 3 μM (3 μM test compound) | also measured
CC(=O)c1cccc(-c2ccc3c(c2)CN(CCNC(=O)c2cc(C)oc2C)C(N)=N3)c1 [Compound 588] | <30% | <30% | <30% | 
CN(C(=O)CCC(C)(C)N1Cc2cc(Oc3ccccc3)ccc2N=C1N)C1CCCCC1 [Compound 738] |  |  |  | % Inhibition (FS) (0.3 μM test compound): 14%; % Inhibition (FS) (1 μM test compound): 28%; % Inhibition (FS) (3 μM test compound): 61%
CC(C)(C)C(=O)Nc1cccc(CN2Cc3cc(Oc4ccccc4)ccc3N=C2N)c1 [Compound 290] | <30% | <30% | <30% | 
CC(=O)N1CCC(C(=O)NCCN2Cc3cc(-c4ccccc4Cl)ccc3N=C2N)CC1 [Compound 691] |  |  |  | % Inhibition (FS) (0.3 μM test compound): <30%; % Inhibition (FS) (1 μM test compound): <30%; % Inhibition (FS) (3 μM test compound): 51%
CN(C(=O)c1cccc(CN2Cc3cc(C=Cc4ccccc4)ccc3N=C2N)c1)C1CCCCC1 [Compound 266] | <30% | 34% | <30% | 
NC1=Nc2ccc(Oc3ccccc3)cc2CN1CC1CCN(C(=O)C2CCCCC2)CC1 [Compound 525] | <30% | <30% | 70% | 
COc1cccc(OC)c1Oc1ccc2c(c1)CN(Cc1cccc(C(=O)N(C)C3CCCCC3)c1)C(N)=N2 [Compound 477] | <30% | <30% | <30% | 
COC(=O)C1CCCC(N(C)C(=O)CCC(C2CCCCC2)N2Cc3cc(Oc4ccccc4)ccc3N=C2N)C1 (mixture of isomers) [Compound 777] |  |  |  | % Inhibition (FS) (0.3 μM test compound): 38%; % Inhibition (FS) (1 μM test compound): 97%; % Inhibition (FS) (3 μM test compound): 123%
CC(=O)N1CCC(C(=O)NCCN2Cc3cc(C4=CCCCC4)ccc3N=C2N)CC1 [Compound 705] |  |  |  | % Inhibition (FS) (0.3 μM test compound): <30%; % Inhibition (FS) (1 μM test compound): <30%; % Inhibition (FS) (3 μM test compound): <30%
NC1=Nc2ccc(Oc3ccccc3)cc2CN1Cc1cccc(C(=O)N2CCCC3CCCCC32)c1 (centres unmarked) [Compound 212] | <30% | <30% | 32% | 
COC1CCCC(C(=O)NCCN2Cc3cc(C4=CCCC4)ccc3N=C2N)C1 (centres unmarked) [Compound 706] |  |  |  | % Inhibition (FS) (0.3 μM test compound): <30%; % Inhibition (FS) (1 μM test compound): <30%; % Inhibition (FS) (3 μM test compound): <30%
CN(C)Cc1ccccc1-c1ccc2c(c1)CN(Cc1cccc(C(=O)N(C)C3CCCCC3)c1)C(N)=N2 [Compound 172] | <30% | <30% | <30% | 
CN(C(=O)CC[C@@H](C1CCCCC1)N1Cc2cc(Oc3ccccc3)ccc2N=C1N)C1CCC2(CC1)OCCO2 [Compound 710] |  |  |  | % Inhibition (FS) (0.3 μM test compound): <30%; % Inhibition (FS) (1 μM test compound): 68%; % Inhibition (FS) (3 μM test compound): 126%
CN(C(=O)c1ccccc1CN1Cc2cc(Oc3ccccc3)ccc2N=C1N)C1CCCCC1 [Compound 463] | <30% | <30% | <30% | 
NC1=Nc2ccc(Oc3ccccc3)cc2CN1CCCNC1CCCCC1 [Compound 403] | <30% | <30% | 66% | 
NC1=Nc2ccc(Oc3ccccc3)cc2CN1Cc1cccc(NC(=O)C2CCCCC2)c1 [Compound 286] | <30% | <30% | 36% | 
CC(=O)Nc1cccc(Oc2ccc3c(c2)CN(Cc2cccc(C(=O)N(C)C4CCCCC4)c2)C(N)=N3)c1 [Compound 229] | <30% | 35% | <30% | 
CN1CCCC1CCNC(=O)c1cccc(CN2Cc3cc(Oc4ccccc4)ccc3N=C2N)c1 (centres unmarked) [Compound 222] | <30% | <30% | <30% | 
NC(=O)c1ccccc1-c1ccc2c(c1)CN(CCNC(=O)C1CCCCC1)C(N)=N2 [Compound 543] | <30% | <30% | <30% | 

Structure (SMILES) | % Inhibition (FS) 0.3 μM (0.3 μM test compound) | % Inhibition (FS) 1 μM (1 μM test compound) | % Inhibition (FS) 3 μM (3 μM test compound) | also measured
CC(C)CCC(=O)NCCN1Cc2cc(-c3ccc4ccccc4c3)ccc2N=C1N [Compound 668] |  |  |  | % Inhibition (FS) (0.3 μM test compound): <30%; % Inhibition (FS) (1 μM test compound): <30%; % Inhibition (FS) (3 μM test compound): <30%
CC(=O)c1cccc(-c2ccc3c(c2)CN(CCNC(=O)Cc2ccccc2)C(N)=N3)c1 [Compound 598] | <30% | <30% | 36% | 
CN(C(=O)c1cccc(CN2Cc3cc(OCc4ccccc4-c4ccccc4)ccc3N=C2N)c1)C1CCCCC1 [Compound 513] | <30% | <30% | <30% | 
NC1=Nc2ccc(-c3ccccc3Cl)cc2CN1CCNC(=O)CCC(F)(F)F [Compound 682] |  |  |  | % Inhibition (FS) (0.3 μM test compound): 39%; % Inhibition (FS) (1 μM test compound): 77%; % Inhibition (FS) (3 μM test compound): 97%
CCCC(CCC)C(=O)N1CCCCC(N2Cc3cc(Oc4ccccc4)ccc3N=C2N)C1 (centres unmarked) [Compound 552] | <30% | <30% | 36% | 
COc1ccccc1-c1ccc2c(c1)CN(CCNC(=O)C1CCN(C(C)=O)CC1)C(N)=N2 [Compound 491] | <30% | <30% |  | % Inhibition (FS) 3 μM (3 μM test compound, 3 µM): 44% and <30%
CN(C(=O)c1cccc(CN2Cc3ccccc3N=C2N)c1)C1CCCCC1 [Compound 801] |  |  |  | inhibition at 0.3 µM (0.3 μM test compound): < 30%; inhibition at 1 µM (1 μM test compound): < 30%; inhibition at 3 µM (3 μM test compound): < 30%
COc1ccccc1-c1ccc2c(c1)CN([C@@H](CCC(=O)N(C)Cc1cc(-c3ccccc3)on1)C1CCCCC1)C(N)=N2 [Compound 719] |  |  |  | % Inhibition (FS) (0.3 μM test compound): 31%; % Inhibition (FS) (1 μM test compound): <30%; % Inhibition (FS) (3 μM test compound): 81%
NC1=Nc2ccc(Oc3ccccc3)cc2CN1CCC(=O)N(C1CCCCC1)C1CCCCC1 [Compound 180] | <30% | <30% | 77% | 
COc1cccc(Nc2ccc3c(c2)CN(Cc2cccc(C(=O)N(C)C4CCCCC4)c2)C(N)=N3)c1 [Compound 433] | <30% | 33% | 88% | 
CCCC(=O)NCCN1Cc2cc(Br)ccc2N=C1N [Compound 808] |  |  |  | inhibition at 0.3 µM (0.3 μM test compound): < 30%; inhibition at 1 µM (1 μM test compound): < 30%; inhibition at 3 µM (3 μM test compound): < 30%
CC(=O)c1ccccc1-c1ccc2c(c1)CN(Cc1cccc(C(=O)N(C)C3CCCCC3)c1)C(N)=N2 [Compound 323] | <30% | <30% | 45% | 
NC1=Nc2ccc(Oc3ccccc3)cc2CN1CCCNC(=O)C1CC1 [Compound 143] |  |  | <30% | % Inhibition (FS) 10 μM (10 μM test compound): 32%
CN1CCC(N(C)C(=O)c2cccc(C(c3ccccc3)N3Cc4cc(Oc5ccccc5)ccc4N=C3N)c2)CC1 (centres unmarked) [Compound 316] | <30% | <30% | <30% | 
COc1ccccc1-c1ccc2c(c1)CN([C@@H](CCC(=O)N(C)C1CCCCC1)C1CCCCC1)C(N)=N2 [Compound 506] | 106% | 115% | 128% | 
CN(C(=O)CCC(C1CCCCC1)N1Cc2cc(Oc3ccccc3)ccc2N=C1N)C1CCC(C(=O)OCc2ccccc2)CC1 (centres unmarked) [Compound 760] |  |  |  | % Inhibition (FS) (0.3 μM test compound): <30%; % Inhibition (FS) (1 μM test compound): 44%; % Inhibition (FS) (3 μM test compound): 89%
CN(CC(=O)O)C(=O)CCC(C1CCCCC1)N1Cc2cc(Oc3ccccc3)ccc2N=C1N (centres unmarked) [Compound 767] |  |  |  | % Inhibition (FS) (0.3 μM test compound): <30%; % Inhibition (FS) (1 μM test compound): 71%; % Inhibition (FS) (3 μM test compound): 106%
CC1CCN(C(=O)CCCC(CCC(=O)N2CCC(C)CC2)N2Cc3cc(Oc4ccccc4)ccc3N=C2N)CC1 (centres unmarked) [Compound 532] | <30% | <30% | 68% | 
